According to publication PMC9387934, “Randomized single oral dose phase 1 study of safety, tolerability, and pharmacokinetics of Iminosugar UV-4 Hydrochloride (UV-4B) in healthy subjects” (PLoS Neglected Tropical Diseases, 2022):
Where a name gives a salt, the structure may show the parent alone.

Key:
[1] = Phase 1a single ascending dose study: safety and tolerability (treatment-emergent adverse events); type: in vivo, human; details: for Tolerability of single oral doses / Dose-limiting toxicity: po; for Maximum tolerated dose: single oral dose in humans, not yet determined
Procedure: UV-4 ((2R,3R,4R,5S)-2-(hydroxymethyl)-1-(9-methoxynonyl)piperidine-3,4,5-triol, also called N-(9’-methoxynonyl)-1-deoxynojirimycin, or MON-DNJ) hydrochloride was evaluated in a first-in-human, randomized, single-center, double-blind, placebo-controlled, parallel group, single ascending dose Phase 1a clinical trial in healthy subjects (Figs 1 and 2, ClinicalTrials.gov Identifier NCT02061358 https://clinicaltrials.gov/ct2/show/NCT02061358). The primary objective was to determine the safety and tolerability of a single-ascending oral dose of UV-4 hydrochloride (Fig 3). […] The secondary objective was to determine PK parameters describing absorption and elimination of UV-4 following a single oral dose of UV-4 hydrochloride. Eight cohorts of eight subjects each were enrolled and completed the study. In each cohort, six subjects received UV-4 as the hydrochloride; two received placebo. Subjects were screened against study eligibility criteria up to four weeks (Days -28 to -2) before admission to the clinic (Day -1). Dosing was performed on an inpatient basis. Subjects remained in clinic for 48 hours post-dosing for PK sample collection and safety assessments and were discharged from the clinic on Day 3. Subjects returned to the clinic on Day 4 for additional safety assessments, then again on Day 9 ± 1 for a final follow-up visit.
Safety assessments included telemetry (pre-dose and 12 hours during and post-dosing), 12-lead ECG measurements, vital signs (supine and standing) including systolic blood pressure (SBP) and diastolic blood pressure (DBP) (mmHg), pulse rate (beats/minute), respiratory rate (breaths/minute), and oral temperature, physical examinations, clinical laboratory assessments (hematology, clinical chemistry, coagulation, urinalysis, platelet function), stool evaluation including occult blood, and adverse events (AEs).
Safety oversight was provided by an independent safety monitor (ISM), Safety Review Committee (SRC), and Safety Monitoring Committee (SMC). In addition, a cardiologist reviewed all cases with AEs related to heart rate and blood pressure. Summary statistics for subject baseline characteristics and measurements, disposition, exposure, and safety were tabulated by cohort in a blinded manner for the review by the SRC and SMC. Blinded individual case information was also supplied to the SMC and cardiologist for review. SRC reviews occurred after all subjects in a given cohort completed evaluations, or after predefined criteria triggered a review (halting criteria). Provided satisfactory safety review, subjects were enrolled into the next higher dose cohort. In addition, the SMC met to review all safety and exposure data after completion of Cohort 3. All AEs were coded to System Organ Class (SOC) and Preferred Term (PT) using the Medical Dictionary for Regulatory Activities (MedDRA), Version 16.1 [34].
All AEs were graded for severity and relationship to study product, according to one of the following categories:
• Grade 1: An event that is easily tolerated by the subject, causing minimal discomfort and not interfering with everyday activities; • Grade 2: An event that is sufficiently discomforting to interfere with normal everyday activities; • Grade 3: An event that prevents normal everyday activities; • Grade 4: An event that requires an emergency room visit or hospitalization […]
9.1 Specification of Safety Parameters
Safety is a primary outcome measure.
Adverse events will be evaluated from time of dose administration through the follow-up visit. Adverse events that have not resolved at the follow-up visit will be followed until resolution or until medically stable. […]
If a vital sign measurement is observed to be abnormal, it may be repeated up to a total of 2 times at 5 to 10 minutes intervals. If a normal value is obtained, no further repeat measurements are required. If the value is still abnormal after 2 repeats, the least abnormal value will be utilized for grading the AE. The AE will […]

[2] = cited from earlier work
[3] = 14-day GLP toxicology study in mice (UV4-COV-036); details: Crl:CD1(ICR), mouse, in vivo, 300 mg/kg/day, read-out: Daily exposure at NOAEL [3 x AUC(0-8)]
Procedure: Fourteen-day studies were conducted in mice and dogs. […]
The inverted AST/ALT ratio […]
and lymphocyte depletion were reversible. Thymus weight decrease in females was reversible but thymus weight decreases in males were not. However, because the apparent […]
microscopic thymus findings, thymus weight differences at the recovery necropsy were considered not toxicologically important. In mice at 25 mg/kg/dose (75 mg/kg/day) there were decreased thymus weights (males), follicular epithelium vacuolation in the thyroid, and lymphoid depletion of the thymus (males). All findings were reversible but a NOEL was not present at this dose level. At the no NOAEL of 300 mg/kg/day, there were clinical hematology, chemistry, and anatomic pathology findings similar to those observed in the dogs. All findings were reversible.
Based on these observations, the NOAEL for UV-4B following 14 days of TID administration in mice is considered to be 300 mg/kg/day. This dose level corresponded to Day 14 mean Cmax […]
ng•h/mL, respectively. Daily exposure at NOAEL [calculated as 3 x AUC(0-8)] is estimated at 163,305 ng•h/mL. In dogs, the NOAEL following 14 days of TID administration is considered to be 30 mg/kg/day. At the end of the dosing phase, this dose level corresponded to average […]
Daily exposure [calculated as 3 x AUC(0-8)] is estimated at 32,820 ng•h/mL.
This material is the property of the Unither Virology. […]

In the case of `COCCCCCCCCCN1C[C@H](O)[C@@H](O)[C@H](O)[C@H]1CO` [UV-4, N-(9’-methoxynonyl)-1-deoxynojirimycin], the “Grade 2 Related TEAE: number (%) of subjects” value ([1]; both, human, in vivo) is reported as 1 (2.1%), the “Grade 3 Related TEAE: number (%) of subjects” value ([1]; both, human, in vivo) is reported as 0 and the “Grade 3 TEAE: number (%) of subjects” value ([1]; both, human, in vivo) is reported as 1 (2.1%). The “Incidence of Bristol Stool Scale Type 7” value ([1]; both, human, in vivo) was “no incidence of Bristol Stool Scale Type 7”, the “Related TEAE, Abdominal Pain: number (%) of subjects” value ([1]; both, human, in vivo) was 1 (2.1%) and the “Related TEAE, Balance disorder: number (%) of subjects” value ([1]; both, human, in vivo) was 1 (2.1%). For the same molecule, the “Related TEAE, Blood Calcium Decreased: number (%) of subjects” value ([1]; both, human, in vivo) was 1 (2.1%), the “Related TEAE, Blood Pressure Decreased: number (%) of subjects” value ([1]; both, human, in vivo) was 0 and the “Related TEAE, Cardiac disorders (System Organ Class): number (%) of subjects” value ([1]; both, human, in vivo) was 1 (2.1%). For the same molecule, the “Related TEAE, Dizziness postural: number (%) of subjects” value ([1]; both, human, in vivo) was 1 (2.1%), the “Related TEAE, Dizziness: number (%) of subjects” value ([1]; both, human, in vivo) was 1 (2.1%) and the “Related TEAE, Ear and labyrinth disorders (System Organ Class): number (%) of subjects” value ([1]; both, human, in vivo) was 1 (2.1%). The “Related TEAE, Gastrointestinal disorders (System Organ Class): number (%) of subjects” value ([1]; both, human, in vivo) was 3 (6.3%), the “Related TEAE, General disorders and administration site conditions (System Organ Class): number (%) of subjects” value ([1]; both, human, in vivo) was 1 (2.1%) and the “Related TEAE, Headache: number (%) of subjects” value ([1]; both, human, in vivo) was 2 (4.2%). The “Related TEAE, Investigations (System Organ Class): number (%) of subjects” value ([1]; both, human, in vivo) was 2 (4.2%), the “Related TEAE, Lipase increased: number (%) of subjects” value ([1]; both, human, in vivo) was 1 (2.1%) and the “Related TEAE, Local Swelling: number (%) of subjects” value ([1]; both, human, in vivo) was 1 (2.1%). The “Related TEAE, Nervous system disorder (System Organ Class): number (%) of subjects” value ([1]; both, human, in vivo) was 4 (8.3%), the “Related TEAE, Neutrophil count decreased: number (%) of subjects” value ([1]; both, human, in vivo) was 0 and the “Related TEAE, Presyncope: number (%) of subjects” value ([1]; both, human, in vivo) was 0. The “Related TEAE, Proteinuria: number (%) of subjects” value ([1]; both, human, in vivo) was 1 (2.1%), the “Related TEAE, Renal and urinary disorders (System Organ Class): number (%) of subjects” value ([1]; both, human, in vivo) was 1 (2.1%) and the “Related TEAE, Supraventricular tachycardia: number (%) of subjects” value ([1]; both, human, in vivo) was 0. The “Related TEAE, Ventricular tachycardia: number (%) of subjects” value ([1]; both, human, in vivo) was 1 (2.1%), the “Related TEAE, Vertigo: number (%) of subjects” value ([1]; both, human, in vivo) was 1 (2.1%) and the “Related TEAE, White blood cell count decreased: number (%) of subjects” value ([1]; both, human, in vivo) was 0. For the same molecule, the “Subjects with ≥1 TEAE: number (%) of subjects” value ([1]; both, human, in vivo) was 43 (89.6%), the “Tolerability of single oral doses” value ([1]; both, human, in vivo) was “safe at all doses tested up to 1000 mg” and the “Grade 1 Related TEAE: number (%) of subjects” value ([1]; human, in vivo) was 10 (20.8%). For the same molecule, the “TEAE Haematuria: number (%) of subjects” value ([1]; human, in vivo) was 4 (8.3), the “TEAE Headache: number (%) of subjects” value ([1]; human, in vivo) was 3 (6.3) and the “TEAE Prothrombin time prolonged: number (%) of subjects” value ([1]; human, in vivo) was 4 (8.3). The “Dose-dependent increases in adverse events” value ([1]; in vivo) was “not observed”, the “Fecal occult blood findings” value ([1]; in vivo) was “None of the subjects had positive fecal occult blood findings” and the “Subjects reporting abdominal pain” value ([1]; in vivo) was “two”. The Subjects who vomited ([1]; in vivo) was “one”, the Dose-limiting toxicity ([1]; in vivo) was “No dose limiting toxicity was observed” and the “Tolerability of single oral doses” value ([1]; in vivo) was “well tolerated”. For the same molecule, the Maximum tolerated dose [1] was over 1000 mg and the Accumulation ([2]; BID or TID dosing after 14 days in mouse or dog, ref Investigator’s Brochure (IB)) was “did not accumulate”.

With `COCCCCCCCCCN1C[C@H](O)[C@@H](O)[C@H](O)[C@H]1CO` [UV-4B, N-(9’-methoxynonyl)-1-deoxynojirimycin hydrochloride] the “Related TEAE, Balance disorder: number (%) of subjects” value ([1]; both, human, in vivo) was 1/48, the “Related TEAE, Dizziness postural: number (%) of subjects” value ([1]; both, human, in vivo) was 1/48 and the “Related TEAE, Dizziness: number (%) of subjects” value ([1]; both, human, in vivo) was 1/48. The “Related TEAE, Headache: number (%) of subjects” value ([1]; both, human, in vivo) was 2/48, the Dose-limiting toxicity ([1]; in vivo) was “not observed” and the Maximum tolerated dose [1] was over 1000 mg. The “Bioavailability of the hydrochloride salt” value ([2]; animal studies) was “high bioavailability” and the AUC(0-t) [3] was 163 µg·h/mL.
